PubChem BioAssay (NCI)
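Values below derive from 48-hour exposures of cells grown in 96-well plates, with endpoints linearly interpolated between the two concentrations bracketing the appropriate inhibition level. Here, GI50 denotes the concentration required for 50% inhibition of growth. TGI is the concentration that stops growth completely.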 Where a SMILES comes first, the peptide text is derived from it.

How the values were obtained:
Test in all cases: growth of human tumour cells (NCI), 48 h
SNB-75 CNS = tested on: SNB-75 CNS
SN12C renal = tested on: SN12C renal
HL-60(TB) leukemia = tested on: HL-60(TB) leukemia
MOLT-4 leukemia = tested on: MOLT-4 leukemia
OVCAR-5 ovarian = tested on: OVCAR-5 ovarian
SNB-19 CNS = tested on: SNB-19 CNS
SK-OV-3 ovarian = tested on: SK-OV-3 ovarian
NCI-H460 lung = tested on: NCI-H460 lung
SK-MEL-28 melanoma = tested on: SK-MEL-28 melanoma
UACC-257 melanoma = tested on: UACC-257 melanoma

SMILES | TGI (SNB-75 CNS) | TGI (SN12C renal) | TGI (HL-60(TB) leukemia) | TGI (MOLT-4 leukemia) | TGI (OVCAR-5 ovarian) | TGI (SNB-19 CNS) | TGI (SK-OV-3 ovarian) | TGI (NCI-H460 lung) | TGI (SK-MEL-28 melanoma) | TGI (UACC-257 melanoma) | GI50 (SNB-75 CNS) | GI50 (SN12C renal) | GI50 (HL-60(TB) leukemia) | GI50 (MOLT-4 leukemia) | GI50 (OVCAR-5 ovarian) | GI50 (SNB-19 CNS) | GI50 (SK-OV-3 ovarian) | GI50 (NCI-H460 lung) | GI50 (SK-MEL-28 melanoma) | GI50 (UACC-257 melanoma)
COc1cc(/C=N/c2nc3cc4sc(/N=C/c5cc(OC)c(OC)c(OC)c5)nc4cc3s2)cc(OC)c1OC | > 100 µM | > 100 µM | > 100 µM | > 100 µM | > 100 µM | > 100 µM | > 100 µM | > 100 µM | 39.1 µM | > 100 µM | – | – | – | – | – | – | – | – | – | –
CCc1n[nH]c(=O)n1/N=C(\C)c1ccc([N+](=O)[O-])cc1 | – | > 100 µM | > 100 µM | > 100 µM | > 100 µM | > 100 µM | – | > 100 µM | > 100 µM | > 100 µM | – | – | – | – | – | – | – | – | – | –
O=C(NC(Cc1ccc(Br)cc1)C(=O)O)c1ccc(I)cc1 (stereo not drawn) | > 100 µM | > 100 µM | > 100 µM | > 100 µM | > 100 µM | > 100 µM | > 100 µM | > 100 µM | > 100 µM | > 100 µM | – | – | – | – | – | – | – | – | – | –
CCCCCCCCCCCCCC1=C(O)C(=O)C(CC2=C(O)C(=O)C(CCCCCCCCCCCCC)=C(O)C2=O)=C(O)C1=O | 83 µM | > 100 µM | > 100 µM | – | > 100 µM | 92.9 µM | > 100 µM | – | > 100 µM | > 100 µM | – | – | – | – | – | – | – | – | – | –
O=C1c2cccnc2C(=O)c2c1c(C(=O)OCCN1CCCCC1)c1ccccn21 | 0.188 µM | 0.479 µM | 3.24 µM | 2.21 µM | 2.02 µM | 0.498 µM | 0.051 µM | 0.0128 µM | 2.19 µM | 0.395 µM | 0.0189 µM | 0.0138 µM | 0.363 µM | 0.162 µM | 0.198 µM | 0.013 µM | 0.0124 µM | 0.005 µM | 0.21 µM | 0.0878 µM
Cc1cc2c(c(O)c1-c1c(C)cc(O)c3c1C(=O)C=CC3=O)C(=O)C=CC2=O | 84.9 µM | 7.59 µM | – | 0.375 µM | 7.86 µM | > 56.8 µM | 29 µM | 44.5 µM | – | – | – | – | – | – | – | – | – | – | – | –
O=C(Oc1c(Cl)cc(C2(c3cc(Cl)c(OC(=O)c4ccccc4)c(Cl)c3)CCCCC2)cc1Cl)c1ccccc1 | 26.9 µM | 28.2 µM | 23.5 µM | 20.7 µM | 27.4 µM | 35.4 µM | 31.2 µM | 26.1 µM | 29.3 µM | 26.1 µM | – | – | – | – | – | – | – | – | – | –
CC1C(=O)CC(c2cccs2)N(N=O)C1c1cccs1 (stereo not drawn) | > 74 µM | > 100 µM | > 72.2 µM | 73.7 µM | > 100 µM | > 100 µM | > 81.2 µM | > 100 µM | > 100 µM | > 100 µM | – | – | – | – | – | – | – | – | – | –
CC1(CO)COS(=O)OC1 (stereo not drawn) | > 100 µM | > 100 µM | – | > 100 µM | – | > 100 µM | > 100 µM | > 100 µM | > 100 µM | > 100 µM | – | – | – | – | – | – | – | – | – | –
OC[C@H]1NC[C@@H](O)[C@@H](O)[C@H]1O | > 100 µM | > 100 µM | – | > 100 µM | > 100 µM | > 100 µM | > 100 µM | > 100 µM | – | > 100 µM | – | – | – | – | – | – | – | – | – | –
O=C(CSCC(=O)N/N=C/c1ccccc1)N/N=C\c1ccccc1 | > 100 µM | > 100 µM | – | > 100 µM | > 100 µM | > 100 µM | > 100 µM | > 100 µM | > 100 µM | > 100 µM | – | – | – | – | – | – | – | – | – | –
S=c1c2[nH]cnc2ncn1CCSC1=NC=NC2=NC=NC21 (stereo not drawn) | > 100 µM | > 100 µM | > 100 µM | > 100 µM | > 100 µM | > 100 µM | > 100 µM | > 100 µM | > 100 µM | > 100 µM | – | – | – | – | – | – | – | – | – | –
Cc1[nH]c(=O)[nH]c(=O)c1/C=C/C(=O)NC(CO)CS(=O)CS(C)=O (stereo not drawn) | 38.8 µM | 91.5 µM | 57.4 µM | 66.5 µM | 483 µM | 77.9 µM | 169 µM | 68.1 µM | 69.8 µM | 151 µM | – | – | – | – | – | – | – | – | – | –
COc1ccc(-c2nc3c(nc2-c2ccc(OC)cc2)C(N)=NS(=O)(=O)N3)cc1 | > 100 µM | > 100 µM | > 100 µM | > 100 µM | > 100 µM | > 100 µM | > 100 µM | – | > 100 µM | > 100 µM | – | – | – | – | – | – | – | – | – | –
CSc1nc(CO)c(CO)n1C | > 100 µM | > 100 µM | > 100 µM | > 100 µM | > 100 µM | > 100 µM | > 100 µM | > 100 µM | > 100 µM | > 100 µM | – | – | – | – | – | – | – | – | – | –
CN(Cc1cn(O)c2nc(=N)nc(N)c-2n1)c1ccc(C(=O)NC23CC4CC(CC(C4)C2)C3)cc1 | 76.2 µM | > 100 µM | > 100 µM | > 100 µM | > 100 µM | > 100 µM | > 100 µM | > 100 µM | > 100 µM | > 100 µM | – | – | – | – | – | – | – | – | – | –
NC(=O)C1CCCN1C(=O)C(N)Cc1ccccc1 (stereo not drawn) (H-Phe-Pro-NH2; configuration not given here) | – | – | > 100 µM | > 100 µM | > 100 µM | > 100 µM | – | > 100 µM | > 100 µM | – | – | – | – | – | – | – | – | – | – | –
